Data as given in patent publication US12161722B2, “Bifunctional heterocyclic compound having BTK degradation function via ubiquitin proteasome pathway, and use thereof” (KOREA RESEARCH INSTITUTE OF CHEMICAL TECHNOLOGY, priority 2021, dated 2024).

What follows are compounds tested against T1, WT BTK protein (Homo sapiens, UniProt Q06187) (assay: BTK protein degradation assay (Western blotting), WT BTK). Conditions: concentration range accounting for 50% degradation of WT BTK protein, TMD-8 or RAMOS cells, 24 hours.
T1 construct: measured for intracellular BTK protein levels by Western blotting; endogenous in cells; host or cells: TMD-8 or RAMOS cells
T1 sequence (Q06187 whole entry): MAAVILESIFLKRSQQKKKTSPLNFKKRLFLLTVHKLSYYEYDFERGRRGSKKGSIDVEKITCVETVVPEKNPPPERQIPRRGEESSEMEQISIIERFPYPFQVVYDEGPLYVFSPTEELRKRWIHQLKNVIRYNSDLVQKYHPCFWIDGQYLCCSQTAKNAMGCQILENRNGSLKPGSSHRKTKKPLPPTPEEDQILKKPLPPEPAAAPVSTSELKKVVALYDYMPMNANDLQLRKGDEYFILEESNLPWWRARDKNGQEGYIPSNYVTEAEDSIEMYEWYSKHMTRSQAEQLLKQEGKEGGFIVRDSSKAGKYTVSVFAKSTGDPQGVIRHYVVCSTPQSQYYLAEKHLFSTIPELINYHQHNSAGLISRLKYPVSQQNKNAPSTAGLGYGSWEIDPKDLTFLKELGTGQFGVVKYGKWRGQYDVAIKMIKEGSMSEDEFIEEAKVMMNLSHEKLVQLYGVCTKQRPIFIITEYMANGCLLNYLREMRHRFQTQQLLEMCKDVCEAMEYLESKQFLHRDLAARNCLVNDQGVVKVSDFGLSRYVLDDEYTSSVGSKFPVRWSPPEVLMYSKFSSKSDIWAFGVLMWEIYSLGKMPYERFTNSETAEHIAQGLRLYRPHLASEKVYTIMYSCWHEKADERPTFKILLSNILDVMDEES
Format: cell-based
Summary of the method: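 BTK levels were read by Western blotting (GAPDH and β-actin normalisers) in RIPA lysates of TMD-8 cells exposed to compounds for 24 h at 1×10^6 cells/mL. Results scored in ranges of the concentration producing 50% loss of WT BTK.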
In the case of `Cc1cccc(C)c1Nc1nn(C)c2nc(Nc3ccc4c(c3)CN(C3CCN(CC5CCN(c6ccc7c(c6)C(=O)N(C6CCC(=O)NC6=O)C7=O)CC5)CC3)CC4)ncc12` (centres unmarked) [Compound 139, 5-(4-((4-(7-((3-((2,6-Dimethylphenyl)amino)-1-methyl-1H-pyrazolo[3,4-d]pyrimidin-6-yl)amino)-3,4-dihydroisoquinolin-2 (1H)-yl)piperidin-1-yl)methyl)piperidin-1-yl)-2-(2,6-dioxopiperidin-3-yl)isoindoline-1,3-dione], the DC50 is reported as 0.1 to 10 nM.
`Cc1cccc(C)c1Nc1nn(C)c2nc(Nc3ccc4c(c3)CN(C(=O)C3CCN(c5ccc6c(=O)n(C7CCC(=O)NC7=O)nnc6c5)CC3)CC4)ncc12` (centres unmarked) [Compound 69, 3-(7-(4-(7-((3-((2,6-Dimethylphenyl)amino)-1-methyl-1H-pyrazolo[3,4-d]pyrimidin-6-yl)amino)-1,2,3,4-tetrahydroisoquinoline-2-carbonyl)piperidin-1-yl)-4-oxobenzo[d][1,2,3]triazin-3 (4H)-yl)piperidin-2,6-one] was tested, and the DC50 was 10 to 1000 nM.
In the case of `Cc1cccc(C)c1Nc1nn(C)c2nc(Nc3ccc4c(c3)CN(CC(=O)Nc3ccc5c(c3)CN(C3CCC(=O)NC3=O)C5=O)CC4)ncc12` (centres unmarked) [Compound 108, 2-(7-((3-((2,6-Dimethylphenyl)amino)-1-methyl-1H-pyrazolo[3,4-d]pyrimidin-6-yl)amino)-3,4-dihydroisoquinolin-2 (1H)-yl)-N-(2-(2,6-dioxopiperidin-3-yl)-1-oxoisoindolin-5-yl)acetamide], the DC50 is reported as 0.1 to 10 nM.
With `Cn1nc(Nc2c(Cl)cccc2I)c2cnc(Nc3ccc4c(c3)CN(CC3CCN(c5ccc6c(c5)C(=O)N(C5CCC(=O)NC5=O)C6=O)CC3)CC4)nc21` (centres unmarked) [Compound 219, 5-(4-((7-((3-((2-chloro-6-iodophenyl)amino)-1-methyl-1H-pyrazolo[3,4-d]pyrimidin-6-yl)amino)-3,4-dihydroisoquinolin-2 (1H)-yl)methyl)piperidin-1-yl)-2-(2,6-dioxopiperidin-3-yl)isoindoline-1,3-dione] the DC50 was 0.1 to 10 nM.
Work on `Cc1cccc(C)c1Nc1nn(C)c2nc(Nc3ccc4c(c3)CN(CC3CCN(C(=O)Nc5ccc6c(c5)CN(C5CCC(=O)NC5=O)C6=O)CC3)CC4)ncc12` (centres unmarked) [Compound 92, 4-((7-((3-((2,6-Dimethylphenyl)amino)-1-methyl-1H-pyrazolo[3,4-d]pyrimidin-6-yl)amino)-3,4-dihydroisoquinolin-2 (1H)-yl)methyl)-N-(2-(2,6-dioxopiperidin-3-yl)-1-oxoisoindolin-5-yl)piperidine-1-carboxamide] yielded a DC50 of 0.1 to 10 nM.
Compound `Cc1cccc(C)c1Nc1nn(C)c2nc(Nc3ccc(N4CCN(CC5CN(c6ccc7c(c6)C(=O)N(C6CCC(=O)NC6=O)C7=O)C5)[C@H](C)C4)cc3)ncc12` (stereo partly drawn) [Compound 186, 5-(3-(((R)-4-(4-((3-((2,6-Dimethylphenyl)amino)-1-methyl-1H-pyrazolo[3,4-d]pyrimidin-6-yl)amino)phenyl)-2-methylpiperazin-1-yl)methyl)azetidin-1-yl)-2-(2,6-dioxopiperidin-3-yl)isoindoline-1,3-dione] has a DC50 of 0.1 to 10 nM.
`Cc1cccc(C)c1Nc1nn(C)c2nc(Nc3ccc4c(c3)CN(C(=O)CN3CCN(c5ccc6c(c5)C(=O)N(C5CCC(=O)NC5=O)C6=O)CC3)CC4)ncc12` (centres unmarked) [Compound 93, 5-(4-(2-(7-((3-((2,6-dimethylphenyl)amino)-1-methyl-1H-pyrazolo [3,4-d]pyrimidin-6-yl)amino)-3,4-dihydroisoquinolin-2 (1H)-yl)-2-oxoethyl)piperazin-1-yl)-2-(2,6-dioxopiperidin-3-yl)isoindoline-1,3-dione] showed a DC50 of 10 to 1000 nM.
With `Cc1cccc(C)c1Nc1nn(C)c2nc(Nc3ccc4c(c3)CN(CC3CN(C(=O)COc5ccc6c(c5)C(=O)N(C5CCC(=O)NC5=O)C6=O)C3)CC4)ncc12` (centres unmarked) [Compound 49, 5-(2-(3-((7-((3-((2,6-Dimethylphenyl)amino)-1-methyl-1H-pyrazolo[3,4-d]pyrimidin-6-yl)amino)-3,4-dihydroisoquinolin-2 (1H)-yl)methyl)azetidin-1-yl)-2-oxoethoxy)-2-(2,6-dioxopiperidin-3-yl)isoindoline-1,3-dione] the DC50 was 10 to 1000 nM.
Work on `Cc1cccc(C)c1Nc1nn(C)c2nc(Nc3ccc4c(c3)CN(CC3CCN(CC(=O)Nc5ccc6c(c5)CN(C5CCC(=O)NC5=O)C6=O)CC3)CC4)ncc12` (centres unmarked) [Compound 91, 2-(4-((7-((3-((2,6-Dimethylphenyl)amino)-1-methyl-1H-pyrazolo[3,4-d]pyrimidin-6-yl)amino)-3,4-dihydroisoquinolin-2 (1H)-yl)methyl)piperidin-1-yl)-N-(2-(2,6-dioxopiperidin-3-yl)-1-oxoisoindolin-5-yl)acetamide] yielded a DC50 of 0.1 to 10 nM.
`Cc1cccc(C)c1Nc1nn(C)c2nc(Nc3ccc4c(c3)CN(C(=S)C3CCN(C(=O)C5CCN(c6ccc7c(c6)C(=O)N(C6CCC(=O)NC6=O)C7=O)CC5)CC3)CC4)ncc12` (centres unmarked) [Compound 234, 5-(4-(4-(7-((3-((2,6-dimethylphenyl)amino)-1-methyl-1H-pyrazolo[3,4-d]pyrimidin-6-yl)amino)-1,2,3,4-tetrahydroisoquinoline-2-carbonothioyl)piperidine-1-carbonyl)piperidin-1-yl)-2-(2,6-dioxopiperidin-3-yl)isoindoline-1,3-dione] was tested, and the DC50 was 0.1 to 10 nM.
For `Cc1cccc(C)c1Nc1nn(C)c2nc(Nc3ccc4c(c3)CN(C(=S)C3CCN(C(=O)CNc5ccc6c(c5)C(=O)N(C5CCC(=O)NC5=O)C6=O)CC3)CC4)ncc12` (centres unmarked) [Compound 235, 5-((2-(4-(7-((3-((2,6-dimethylphenyl)amino)-1-methyl-1H-pyrazolo[3,4-d]pyrimidin-6-yl)amino)-1,2,3,4-tetrahydroisoquinoline-2-carbonothioyl)piperidin-1-yl)-2-oxoethyl)amino)-2-(2,6-dioxopiperidin-3-yl)isoindoline-1,3-dione], the DC50 was 0.1 to 10 nM.
`Cc1cccc(C)c1Nc1nn(C)c2nc(Nc3ccc4c(c3)CCN(CC3CCN(c5ccc6c(c5)C(=O)N(C5CCC(=O)NC5=O)C6=O)CC3)C4)ncc12` (centres unmarked) [Compound 172, 5-(4-((6-((3-((2,6-Dimethylphenyl)amino)-1-methyl-1H-pyrazolo[3,4-d]pyrimidin-6-yl)amino)-3,4-dihydroisoquinolin-2 (1H)-yl)methyl)piperidin-1-yl)-2-(2,6-dioxopiperidin-3-yl)isoindoline-1,3-dione] gave a DC50 of 0.1 to 10 nM.
With `Cc1cccc(C)c1Nc1nn(C)c2nc(Nc3ccc(N4CCN(CC5CCN(c6ccc7c(c6)C(=O)N(C6CCC(=O)NC6=O)C7=O)CC5)CC4)cn3)ncc12` (centres unmarked) [Compound 162, 5-(4-((4-(6-((3-((2,6-Dimethylphenyl)amino)-1-methyl-1H-pyrazolo[3,4-d]pyrimidin-6-yl)amino)pyridin-3-yl)piperazin-1-yl)methyl)piperidin-1-yl)-2-(2,6-dioxopiperidin-3-yl)isoindoline-1,3-dione] the DC50 was 10 to 1000 nM.
With `Cc1cccc(C)c1Nc1nn(C)c2nc(Nc3ccc4c(c3)CCN(CC3CCN(C(=O)CNc5ccc6c(c5)C(=O)N(C5CCC(=O)NC5=O)C6=O)CC3)C4)ncc12` (centres unmarked) [Compound 110, 5-((2-(4-((6-((3-((2,6-Dimethylphenyl)amino)-1-methyl-1H-pyrazolo[3,4-d]pyrimidin-6-yl)amino)-3,4-dihydroisoquinolin-2 (1H)-yl)methyl)piperidin-1-yl)-2-oxoethyl)amino)-2-(2,6-dioxopiperidin-3-yl)isoindoline-1,3-dione] the DC50 was 0.1 to 10 nM.
